Values quoted from earlier work in patent US11013707B2, “Administration of oral methyldopa” (ImmunoMolecular Therapeutics, LLC., priority 2018, dated 2021).
Like-named read-outs stand apart in the source and are kept apart here.

Legend:
[1] = man, average
[2] = in vivo

Structure (SMILES) | absorption compared with the L isomer (humans, Au et al. 1972) | pharmacologic activity (literature, patients with hypertension) | fraction of the dose available to the systemic circulation as free α-methyldopa ([1]; administered as tablets) | fraction of the dose available to the systemic circulation as free α-methyldopa ([1]; after an oral solution) | half-life [2]
C[C@@](N)(Cc1ccc(O)c(O)c1)C(=O)O [D-α-methyldopa, D-α-Methyl-3,4-dihydroxyphenylalanine] | much less readily absorbed | no pharmacologic activity | – | – | –
C[C@](N)(Cc1ccc(O)c(O)c1)C(=O)O [α-methyldopa, L-α-Methyl-3,4-dihydroxyphenylalanine] | – | – | 27% | 25% | about 105 minutes
